The data set relates to C. elegans diakinesis oocytes. The data set can be described thus: Diakinesis oocyte analysis (chromosome condensation, SYP-1, AIR-2, pH3). As to conditions: for -1 oocytes showing lack of condensation: BPA. From the text: Proper processing of recombination events is coupled with the formation of mature bivalents during the diakinesis stage such that in mutants where recombination intermediate processing is impaired, bivalent maturation is delayed.
Associated with the changes in chromatin morphology, the SC is disassembled during late diakinesis in a tightly controlled fashion. Accordingly, SC components, such as SYP-1, are detectable on the short arms of the bivalent in the −3 oocyte but are essentially absent from the bivalents of −2 and −1 oocytes. Thus, whether a delay in chromosome remodeling could correlate with an incomplete disassembly of SC components in late diakinesis was examined.
Accurate chromosome segregation at meiosis I is characterized by the carefully orchestrated loss of cohesion between homologs coupled with retention of cohesion between sister chromatids. This regulated process involves the targeting of the Aurora-B kinase AIR-2, a member of the chromosomal passenger complex, to the short arm of the bivalents in the −1 oocyte which has been proposed to lead to the removal the meiosis-specific cohesin REC-8 from the short arms of the bivalent. To examine whether these key steps in late meiotic prophase I might be impaired in BPA treated gonads, the localization of AIR-2 in the −1 oocytes was examined. […] Phospho histone H3 (pH3) is a canonical substrate for the activity of AIR-2 [59] and accordingly, although it accumulates in the −3 to −1 oocytes, it is only detected on the short arms of the bivalent in the −1 oocyte in the presence of AIR-2 [56, 57].
BPA bears endocrine disrupting activity in many developmental contexts including gonadal, brain and mammary gland development. BPA has affinity for multiple members of the estrogen receptors family, in particular BPA binds to the human estrogen receptor alpha (ERα) and ERβ as well as estrogen-related receptor gamma (ERR-γ) and in C. elegans with nuclear hormone receptor NHR-14 which also binds estrogen. […] Two hallmarks of exposure to BPA were examined, the decrease in the size of the proliferative zone and the condensation defects observed at diakinesis, as they are both highly penetrant and consistent phenotypes. […] Similarly to the experiments described above, the size of the mitotic zone was quantified as well as condensation defects at diakinesis.
Antibody Staining. DAN staining, immunostaining and analysis of stained meiotic nuclei were performed as in [25] except for ATL-1 and AIR-2 antibodies were dissected gonads were subjected to a 1% fixation method as described in [27]. Antibodies were used at the following dilutions: rabbit α-SYP-1 (1:100), mouse α-RAD-51 (1:100), rabbit α-HTP-3 (1:500), guinea pig α-HIM-8 (1:100), rabbit α-ATL-1 (1:50), rabbit α-AIR-2 (1:100) and rabbit α-pCHK-1 (1:100). The secondary antibodies used were: Cy3 anti-rabbit, FITC anti-guinea-pig and FITC anti-mouse (Jackson Immunochemicals), each at 1:100, Stacks of 0.2 μm slices were captured using a Leica microscope, coupled to the DeltaVision fluorescence microscope system (Applied Precision). The images were projections approximately halfway through 3D data stacks of whole nuclei, except for diakinesis images which encompass entire nuclei.

Take `CC(C)(c1ccc(O)cc1)c1ccc(O)cc1` [BPA, Bisphenol A]: the “gonads with SYP-1 staining on short arm of bivalent in the -1 oocyte” value (BPA exposed gonads) is 10%. Moreover, the “-1 oocytes with pH3 staining localized to the bivalents” value (BPA treated) is recorded as 14%. In addition, where the note is “BPA treated gonads”, the “gonads in which AIR-2 was not detected on the bivalents of -1 oocytes” value is recorded as 100%, the “gonads in which the -1 oocyte did not show normal chromosome condensation” value is 23% and the “gonads with residual SYP-1 staining on short arm of bivalent in the -2 oocyte” value came to 80%. For the same compound, the “kinetics of pH3 nuclear accumulation in diakinesis oocytes” value (BPA treated oocytes) is listed as “delay in the kinetics of pH3 nuclear accumulation”. In addition, the “-1 oocytes showing lack of condensation” value (one day post-L4) is 17%. Besides, the “-1 oocytes showing lack of condensation” value (three days post-L4) was 28%. For the same compound, the “-1 oocytes showing lack of condensation” value (two days post-L4) is listed as 24%. Moreover, where the note is “all BPA gonads examined, from -1, -2 or -3 oocyte”, the “delay in bivalent maturation judged by nuclear morphology” value is listed as “some level of delay in bivalent maturation”.
